pKd: −log10 of the molar value.
Columns and labels:
HSP70 (human HSP70) [1] = target: T1, HSP70 (human HSP70) (Homo sapiens, UniProt P0DMV8); assay: citrate synthase thermal aggregation (light scattering, […] nm); assay type: biochemical; conditions: 50 mM HEPES pH 7.4, 50 C; 50 μM HSP70, 0.25 μM citrate synthase, 5 mM GGA
T1 construct: gene HSPA1A; full-length cDNA (from R. Morimoto) in pCold I (vector His tag, cleavage not mentioned); forward primer encodes N-terminus MAKAAAV

HSP70 (human HSP70) [2] = target: T1, HSP70 (human HSP70); assay: SPR (BIAcore […]), HSP70 amine-coupled to CM5 chip; assay type: binding
DnaK (H. pylori HSP70) = target: T2, DnaK (H. pylori HSP70) (Helicobacter pylori, UniProt P55994); assay: SPR (BIAcore […]), DnaK amine-coupled to CM5 chip; assay type: binding
T2 construct: full length cloned from genomic DNA of ATCC43504 in pCold I (vector His tag, cleavage not mentioned), E. coli BL21, Ni-NTA
T2 sequence (P55994 2-620): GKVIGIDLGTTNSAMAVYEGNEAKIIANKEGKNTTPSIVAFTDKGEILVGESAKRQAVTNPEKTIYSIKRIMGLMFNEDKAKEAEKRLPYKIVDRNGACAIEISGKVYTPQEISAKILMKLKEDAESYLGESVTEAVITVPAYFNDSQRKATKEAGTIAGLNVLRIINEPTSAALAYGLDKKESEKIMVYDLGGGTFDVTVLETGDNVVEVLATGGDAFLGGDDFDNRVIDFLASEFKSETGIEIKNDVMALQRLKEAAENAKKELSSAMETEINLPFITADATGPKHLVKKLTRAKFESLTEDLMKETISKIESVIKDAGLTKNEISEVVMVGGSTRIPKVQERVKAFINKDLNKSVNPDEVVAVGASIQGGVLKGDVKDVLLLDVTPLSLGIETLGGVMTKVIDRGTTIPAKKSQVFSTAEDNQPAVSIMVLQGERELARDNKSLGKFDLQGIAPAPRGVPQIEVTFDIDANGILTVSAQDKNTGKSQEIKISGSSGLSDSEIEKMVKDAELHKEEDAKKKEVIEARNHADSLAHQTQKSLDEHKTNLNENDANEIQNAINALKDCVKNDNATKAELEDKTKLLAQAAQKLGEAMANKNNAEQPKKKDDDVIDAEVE

T1 sequence (P0DMV8 whole entry): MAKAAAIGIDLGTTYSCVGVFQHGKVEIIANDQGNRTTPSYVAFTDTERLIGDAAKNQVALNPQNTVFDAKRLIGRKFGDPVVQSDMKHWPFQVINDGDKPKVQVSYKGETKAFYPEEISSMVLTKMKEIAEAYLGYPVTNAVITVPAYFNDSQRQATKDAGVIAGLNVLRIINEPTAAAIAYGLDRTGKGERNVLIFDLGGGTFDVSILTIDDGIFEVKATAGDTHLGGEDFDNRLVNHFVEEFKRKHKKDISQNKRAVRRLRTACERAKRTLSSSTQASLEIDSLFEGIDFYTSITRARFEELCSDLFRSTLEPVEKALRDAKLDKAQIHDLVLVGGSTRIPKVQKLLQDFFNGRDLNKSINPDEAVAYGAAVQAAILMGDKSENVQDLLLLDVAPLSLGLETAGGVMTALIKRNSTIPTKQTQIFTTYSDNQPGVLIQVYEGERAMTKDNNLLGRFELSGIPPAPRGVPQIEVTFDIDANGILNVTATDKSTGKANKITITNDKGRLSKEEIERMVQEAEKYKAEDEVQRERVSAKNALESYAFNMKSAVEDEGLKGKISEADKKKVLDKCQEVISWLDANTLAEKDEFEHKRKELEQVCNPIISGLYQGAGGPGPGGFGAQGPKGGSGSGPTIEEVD

With `CC(=O)CC/C=C(\C)CC/C=C(\C)CC/C=C(\C)CCC=C(C)C` [GGA, 6,10,14,18-tetramethyl-5,9,13,17-nonadecatetraen-2-one] the “% reduction of chaperone activity at 5 mM” value (HSP70 (human HSP70) [1]) was 15%, the pKd (HSP70 (human HSP70) [2]) was 5.70 and the pKd (DnaK (H. pylori HSP70)) was 7.12.

Source: publication PMC4561889, “Geranylgeranylacetone selectively binds to the HSP70 of Helicobacter pylori and alters its coccoid morphology” (Scientific Reports, 2015)
